Here are results for 2 compounds from ChEMBL document CHEMBL1133749, “Water-soluble, core-modified porphyrins as novel, longer-wavelength-absorbing sensitizers for photodynamic therapy” (J Med Chem, 2000).

The test system of one data set is Murine T-cell line. The experiment in a line: Compound at >50 ug/mL was tested for photoactivity against murine T-cell line; No significant photoactivity. It counts as functional, cell-based. The note with it: Mus musculus.
Data set [1] deals with Colon 26. The experiment in a line: Photodynamic therapy against COLO-26 cells in culture. The note with it: Mus musculus, Colon 26, light or radiation study; read-out: LD50 (the source's name). It counts as cell-based.
The test system of data set [2] is Colon 26. Nature of the data set: Lethal dose required for photodynamic therapy against COLO-26 cells in culture. The format is toxicity, cell-based.
In data set [3] the test system is Mus musculus. The experiment in a line: Tested in vivo for times to mm**3 tumor volume against BALB/c mice bearing COLO-26 tumors at a dose 10 mg/Kg. The format is functional.
Data set [4] deals with Mus musculus. Nature of the data set: Tested in vivo for times to mm**3 tumor volume against BALB/c mice bearing COLO-26 tumors at a dose 3.25 mg/Kg. The format is functional.

`O=S(=O)([O-])c1ccc(-c2c3nc(c(-c4ccc(S(=O)(=O)[O-])cc4)c4ccc([nH]4)c(-c4ccc(S(=O)(=O)[O-])cc4)c4ccc([nH]4)c(-c4ccc(S(=O)(=O)[O-])cc4)c4nc2C=C4)C=C3)cc1.[Na+].[Na+].[Na+].[Na+]`: the NS result in the data set on Murine T-cell line is “No significant photoactivity”. Further, the CC50 with Colon 26 [1] was above 100 µg/mL.
As to `O=S(=O)([O-])c1ccc(-c2c3nc(c(-c4ccc(S(=O)(=O)[O-])cc4)c4ccc(s4)c(-c4ccc(S(=O)(=O)[O-])cc4)c4nc(c(-c5ccc(S(=O)(=O)[O-])cc5)c5ccc2s5)C=C4)C=C3)cc1.[Na+].[Na+].[Na+].[Na+]`, the CC50 in the data set on Colon 26 [2] (Mus musculus, Colon 26, light or radiation study, read-out: LD50 (the source's name)) is below 25 µg/mL. The LD90 in the data set on Colon 26 [2] (mouse) was above 50 µg/mL. The NS result in the data set on Murine T-cell line was “No significant photoactivity”. For the same compound, the Time worked out at 276 h with Mus musculus [3] and 198 h in the data set with Mus musculus [4].
